# Results: patent US7655683B2, “Imidazolopyrazole derivatives useful as selective androgen receptor modulators” (Janssen Pharmaceutica NV, priority 2006, dated 2010)
# Like-named read-outs stand apart in the source and are kept apart here.
# Tests used:
# [1] = system: ventral prostate and levator ani of immature castrated male Sprague Dawley rats; assay: Ventral Prostate and Levator ani Weight in vivo Assay (agonist activity); design: key to % Prostate Stimulation / % levator ani Stimulation: level 1 agonist active if it produced greater than or equal to 30% stimulation of levator ani or ventral prostate at 30 mg/kg; level 2 agonist active if it produced greater than or equal to 5% but less than 30% stimulation of levator ani or ventral prostate at 30 mg/kg; listed herein as “inactive” as they did not meet the specified criteria defined above; settings: once daily for five days, oral, vehicle = 0%, testosterone propionate = 100%, criteria at 30 mg/kg; for change in vivo at 30 mg/kg: Rattus norvegicus, 120 h
# Procedure: Immature (approximately 50 g) castrated male Sprague Dawley rats (Charles River) were treated once daily for five days with test compound ([…], in 30% cyclodextrin or 0.5% methylcellulose vehicle), or with testosterone propionate (administered subcutaneously by injection at the nape of the neck at 5 mg/kg, in a volume of 0.1 mL in sesame oil), or with vehicle (1 mL of 30% cyclodextrin or 0.5% methylcellulose, given orally). On the sixth day, the rats were euthanized by asphyxiation in carbon dioxide. Ventral prostates and levator ani. muscle were removed and their wet weights determined.
# Test compound activity was determined as the percent stimulation of tissue weight, with the vehicle-treated control group set to zero percent and the testosterone alone-treated control group set to 100%.
# [2] = system: ventral prostate and seminal vesicle of immature castrated male Sprague Dawley rats; assay: Ventral Prostate and Seminal Vesicle Weight in vivo Assay (antagonist activity, with testosterone propionate); design: key to Inhibition of prostate (non-weight prostate weight, mg) / Inhibition of seminal vesicle (non-weight seminal vesicle weight, mg): level 1 agonist active if it produced greater than or equal to 30% stimulation of levator ani or ventral prostate at 30 mg/kg; level 2 agonist active if it produced greater than or equal to 5% but less than 30% stimulation of levator ani or ventral prostate at 30 mg/kg; listed herein as “inactive” as they did not meet the specified criteria defined above; settings: test compound oral plus testosterone propionate 2 mg/kg s.c., five days, criteria at 30 mg/kg; for inhibition in vivo at 30 mg/kg: Rattus norvegicus, 120 h
# Procedure: Immature (approximately 50 g) castrated male Sprague Dawley rats (Charles River) were treated once daily for five days with test compound ([…], in 30% cyclodextrin or 0.5% methylcellulose vehicle) and with testosterone propionate (given subcutaneously by injection at the nape of the neck at 2 mg/kg, in a volume of 0.1 mL in sesame oil). On the sixth day, the rats were euthanized by asphyxiation in carbon dioxide. Ventral prosatates and seminal vesicles were removed and their wet weights determined. Test compound activity was determined as the percent inhibition of testosterone-enhanced tissue weights, with a vehicle-treated control group set to zero percent and a testosterone alone-treated control group set to 100%.
# [3] = levator ani wet weight, read-out: % levator ani Stimulation
# [4] = ventral prostate wet weight, read-out: % Prostate Stimulation
# [5] = seminal vesicle wet weight, read-out: Inhibition of seminal vesicle (non-weight seminal vesicle weight, mg)
# [6] = ventral prostate wet weight, read-out: Inhibition of prostate (non-weight prostate weight, mg)
# [7] = levator ani wet weight, 30 mg/kg
# [8] = ventral prostate wet weight, 30 mg/kg
SMILES,"change in vivo at 30 mg/kg [1, 3]","change in vivo at 30 mg/kg [1, 4]","inhibition in vivo at 30 mg/kg [2, 5]","inhibition in vivo at 30 mg/kg [2, 6]",% levator ani Stimulation ([1]; levator ani wet weight),% Prostate Stimulation ([1]; ventral prostate wet weight),"Inhibition of seminal vesicle (non-weight seminal vesicle weight, mg) ([2]; seminal vesicle wet weight)","% levator ani Stimulation [1, 7]","% Prostate Stimulation [1, 8]","Inhibition of prostate (non-weight prostate weight, mg) ([2]; ventral prostate wet weight)"
"CCc1c(/N=C2\N=C(N)N3N=C(C(F)(F)F)CC23C)ccc(C#N)c1C(F)(F)F (centres unmarked) [Compound 9, 4-(6-Amino-3a-methyl-2-trifluoromethyl-3,3a-dihydro-imidazo[1,5-b]pyrazol-4-ylideneamino)-3-ethyl-2-trifluoromethyl-benzonitrile]",5 to 30%,5 to 30%,≥ 30%,5 to 30%,,,,,,
"CC12CC(C(F)(F)F)=NN1C(N)=N/C2=N\c1ccc(Br)c(C(F)(F)F)c1 (centres unmarked) [Compound 10, 4-(4-Bromo-3-trifluoromethyl-phenylimino)-3a-methyl-2-trifluoromethyl-3a,4-dihydro-3H-imidazo[1,5-b]pyrazol-6-ylamine]",,,5 to 30%,5 to 30%,inactive,inactive,,,,
"C[C@]12CC(C(F)(F)F)=NN1C(NC(=O)C(F)(F)F)=N/C2=N\c1ccc(C#N)c(C(F)(F)F)c1 [Compound 13, N-[4-(4-Cyano-3-trifluoromethyl-phenylimino)-3aR-methyl-2-trifluoromethyl-3a,4-dihydro-3H-imidazo[1,5-b]pyrazol-6-yl]-2,2,2-trifluoro-acetamide]",≥ 30%,≥ 30%,5 to 30%,≥ 30%,,,,,,
"C[C@]12CC(C(F)(F)F)=NN1C(NC(=O)Nc1ccc(I)cc1)=N/C2=N\c1ccc(C#N)c(C(F)(F)F)c1 [Compound 14, 1-[4-(4-Cyano-3-trifluoromethyl-phenylimino)-3aR-methyl-2-trifluoromethyl-3a,4-dihydro-3H-imidazo[1,5-b]pyrazol-6-yl]-3-(4-iodo-phenyl)-urea]",≥ 30%,5 to 30%,,5 to 30%,,,inactive,,,
"CC12CC(C(F)(F)F)=NN1C(=N)O/C2=N\c1ccc(C#N)c(C(F)(F)F)c1 (centres unmarked) [Compound 15, 4-(6-Imino-3a-methyl-2-trifluoromethyl-3,3a-dihydro-pyrazolo[1,5-c]oxazol-4-ylideneamino)-2-trifluoromethyl-benzonitrile]",≥ 30%,5 to 30%,5 to 30%,5 to 30%,,,,,,
"C[C@]12CC(C(F)(F)F)=NN1C(N)=NC2=Nc1ccc(C#N)c(C(F)(F)F)c1.O [Compound 16, 4-(6-Amino-3aR-methyl-2-trifluoromethyl-3,3a-dihydro-imidazo[1,5-b]pyrazol-4-ylideneamino)-2-trifluoromethyl-benzonitrile-Hydrates]",,,,,,,level 2 (level 2 antagonist active if it produced greater than or equal to 5% but less than 30% inhibition of ventral prostate or seminal vesicle at 30 mg/kg),level 1 (level 1 agonist active if it produced greater than or equal to 30% stimulation of levator ani or ventral prostate at 30 mg/kg),level 1 (level 1 agonist active if it produced greater than or equal to 30% stimulation of levator ani or ventral prostate at 30 mg/kg),level 2 (level 2 antagonist active if it produced greater than or equal to 5% but less than 30% inhibition of ventral prostate or seminal vesicle at 30 mg/kg)
"C[C@]12CC(C(F)(F)F)=NN1C(N)=NC2=Nc1ccc(C#N)c(C(F)(F)F)c1.O [Compound 17, 4-(6-Amino-3aR-methyl-2-trifluoromethyl-3,3a-dihydro-imidazo[1,5-b]pyrazol-4-ylideneamino)-2-trifluoromethyl-benzonitrile-Hydrates]",,,,,,,leve 1,level 1 (level 1 agonist active if it produced greater than or equal to 30% stimulation of levator ani or ventral prostate at 30 mg/kg),level 2 (level 2 agonist active if it produced greater than or equal to 5% but less than 30% stimulation of levator ani or ventral prostate at 30 mg/kg),inactive
"C[C@@]12CC(C(F)(F)F)=NN1C(N)=NC2=Nc1ccc(C#N)c(C(F)(F)F)c1.O [Compound 18, 4-(6-Amino-3aS-methyl-2-trifluoromethyl-3,3a-dihydro-imidazo[1,5-b]pyrazol-4-ylideneamino)-2-trifluoromethyl-benzonitrile-Hydrates]",,,,,,,inactive,level 2 (level 2 agonist active if it produced greater than or equal to 5% but less than 30% stimulation of levator ani or ventral prostate at 30 mg/kg),inactive,inactive
"C[C@@]12CC(C(F)(F)F)=NN1C(N)=NC2=Nc1ccc(C#N)c(C(F)(F)F)c1.O [Compound 19, 4-(6-Amino-3aS-methyl-2-trifluoromethyl-3,3a-dihydro-imidazo[1,5-b]pyrazol-4-ylideneamino)-2-trifluoromethyl-benzonitrile-Hydrates]",,,,,,,level 1 (level 1 antagonist active if it produced greater than or equal to 30% inhibition of ventral prostate or seminal vesicle at 30 mg/kg),level 1 (level 1 agonist active if it produced greater than or equal to 30% stimulation of levator ani or ventral prostate at 30 mg/kg),level 1 (level 1 agonist active if it produced greater than or equal to 30% stimulation of levator ani or ventral prostate at 30 mg/kg),level 1 (level 1 antagonist active if it produced greater than or equal to 30% inhibition of ventral prostate or seminal vesicle at 30 mg/kg)
"C[C@]12CC(C(F)(F)F)=NN1C(N)=NC2=Nc1ccc(C#N)c(C(F)(F)F)c1.O [Compound 20, 4-(6-Amino-3aR-methyl-2-trifluoromethyl-3,3a-dihydro-imidazo[1,5-b]pyrazol-4-ylideneamino)-2-trifluoromethyl-benzonitrile-Hydrates]",,,,,,,level 1 (level 1 antagonist active if it produced greater than or equal to 30% inhibition of ventral prostate or seminal vesicle at 30 mg/kg),level 2 (level 2 agonist active if it produced greater than or equal to 5% but less than 30% stimulation of levator ani or ventral prostate at 30 mg/kg),level 2 (level 2 agonist active if it produced greater than or equal to 5% but less than 30% stimulation of levator ani or ventral prostate at 30 mg/kg),level 2 (level 2 antagonist active if it produced greater than or equal to 5% but less than 30% inhibition of ventral prostate or seminal vesicle at 30 mg/kg)
"C[C@@]12CC(C(F)(F)F)=NN1C(N)=NC2=Nc1ccc(C#N)c(C(F)(F)F)c1.O [Compound 21, 4-(6-Amino-3aS-methyl-2-trifluoromethyl-3,3a-dihydro-imidazo[1,5-b]pyrazol-4-ylideneamino)-2-trifluoromethyl-benzonitrile-Hydrates]",,,,,,,level 1 (level 1 antagonist active if it produced greater than or equal to 30% inhibition of ventral prostate or seminal vesicle at 30 mg/kg),level 1 (level 1 agonist active if it produced greater than or equal to 30% stimulation of levator ani or ventral prostate at 30 mg/kg),level 1 (level 1 agonist active if it produced greater than or equal to 30% stimulation of levator ani or ventral prostate at 30 mg/kg),level 1 (level 1 antagonist active if it produced greater than or equal to 30% inhibition of ventral prostate or seminal vesicle at 30 mg/kg)
